# From US8946292B2, “Formulations of low dose diclofenac and beta-cyclodextrin” (Javelin Pharmaceuticals, Inc., priority 2006, dated 2015)
# System: moderate-to-severe post-surgical pain (post-surgical dental pain)
# Assay: Randomized, double-blind, single-dose, placebo- and comparator-controlled study of pain relief by administered dose (bolus IV)
# Assay type: in vivo, human
# Conditions: 30 mg single bolus IV dose (comparator)
# Protocol: A 336-patient, seven treatment arm, randomized, double-blind, single-dose, and placebo- and comparator-controlled, parallel-group study was conducted. Patients were randomly assigned to receive a single dose of either diclofenac sodium solubilized with hydroxypropyl-beta-cyclodextrin (hereinafter “DIC”), ketorolac tromethamine, or placebo.
# Bolus IV injectable 2 ml solutions were prepared by solubilizing diclofenac sodium with hydroxypropyl-beta-cyclodextrin. […]
# Pain was assessed by each patient at Baseline (0 hour: Visual Analog Scale (VAS) and categorical pain intensity only), at 5, 15, 30 and 45 minutes, and at 1, 1.5, 2, 3, 4, 5, 6, 7, 8, 10, 12 and 24 hours after administration of study medication and immediately prior to the first dose of rescue medication. At each post-dose time period, levels of pain intensity (categorical and VAS) and pain relief (categorical and VAS) was assessed by each patient. […]
# The presence of a dose-response was tested with a step-down testing procedure. Total pain relief (TOTPAR), peak pain relief, pain intensity difference (SPID), summed peak reduction in pain intensity difference (SPRID), and patient global evaluation was analyzed with analysis of variance (ANOVA) with treatment, center, and baseline categorical pain intensity as factors. […] A 95% confidence interval for each estimated median time to event was calculated. […]
smiles,measurement,setting,value
"O=C(c1ccccc1)c1ccc2n1CCC2C(=O)O (centres unmarked) [ketorolac, ketorolac tromethamine]",% Maximum Effect (TOTPAR),,100%
same,TOTPAR (Sum of Pain Relief VAS 0-100 mm ratings 0-6 hours),"patients, 0-6 hours",400.3
